Assay results reported in patent publication US11401255B2, “Small molecule activators of Parkin enzyme function” (Mayo Foundation for Medical Education and Research, priority 2016, dated 2022).
“And” between values parts separate entries of the source, which are not always exact repeats. Equal values may be shown once. “Also recorded” adds a separate entry of the source. Read-outs that look alike come from different tables or passages of the source.

Assays:
[1] = system: wp2[pKM101]+wp2 uvrA mixed 1:2; assay: Ames Test, E. coli
From the text: The test used amino acid-dependent strains of Salmonella typhimurium and Escherichia coli to detect point mutations which involved substitution, addition or deletion of one or a few DNA base pairs. Point mutations were introduced in the histidine (Salmonella typhimurium) or the tryptophan (Escherichia coli) operon, making the tester strains incapable of producing these amino acids. The test detected mutations that revert the mutations present in the bacteria, restoring the functional capability to synthesize histidine or tryptophan. The revertant bacteria were detected by the ability to grow in the absence of the amino acid required by the parent test strain. A mutagenic potential of a tested compound was assessed by exposing these bacterial strains to different concentrations of the compounds and estimating number of revertant colonies grown in the absence (trace quantities) of the amino acid.
DMSO was used as the negative control.
For each experiment, tester strain cultures were grown overnight in Oxoid nutrient broth #2 at 37° C. with shaking at 235 rpm to a density of 1-2×10^9 colony forming units/mL (OD540˜2).
The tester strain (10 μL of night culture) was mixed with the test agent (10 µL of the DMSO stock) and GM liquid medium (30 μL). The obtained mixture was incubated at room temperature for 5 min in a sterile 1.5 mL tube. Then, to the tube was added 200 μL of molten top agar stored at 44° C. to prevent solidifying. After mixing with a pipette, the mixture was poured onto the surface of a GM agar plate (2.0 mL of GM agar per plate). After solidifying the top agar, the plate was inverted and incubated at 37° C. for 48 hours. Then, results were expressed as number of revertant colonies per plate.

[2] = biological target: CYP 2C9 (Homo sapiens (Human), UniProt P11712); assay: P450-Glo CYP450 inhibition, CYP 2C9; type: in vitro ADME; conditions: CYP 2C9, 10 μM; for inhibition at 10 µM: human, P450-Glo Assay System (Promega), CYP 2C9 membranes
Description: CYP450 inhibition profiling provides valuable information regarding any possible drug-drug interactions for a test compound.
All experiments were performed using P450-Glo™ Assay Systems (Promega) in accordance with the manufacturer's protocols. The P450-Glo™ Assays provide a luminescent readout-based method for measuring cytochrome P450 activity. A conventional cytochrome P450 reaction was performed by incubating the cytochrome P450 and a luminogenic cytochrome P450 substrate. The substrates in the P450-Glo™ assays are derivatives of beetle luciferin. The derivatives themselves are not substrates for luciferase but are converted by cytochrome P450s to luciferin, which in turn reacts with luciferase to produce light. The amount of light produced was directly proportional to cytochrome P450 activity. All test points were performed in quadruplicates. Control membranes (without CYPs) represented the Negative control (baseline).
The following reference compounds were used to assess CYP inhibition: […]

[3] = biological target: Parkin (Homo sapiens (Human), UniProt O60260); assay: Parkin activation in human primary fibroblasts (western blot); type: cell-based; conditions: for MFN1/2 degradation and pSer65-Ub levels: 5 μM before low dose CCCP (3.5 μM); for MFN1 ubiquitylation or pSer65-Ub signals, compound treatment alone: different concentrations, 2 h, absence of CCCP
Description: FIGS. 15A-15H show Parkin activation in primary fibroblasts, neuronal cells and in vitro. Positive control (PC) cells were treated with DMSO and 10 μM of CCCP. Negative control (NC) cells were treated with 3.5 μM CCCP, some cells were left untreated (−). […] Vinculin was used as loading control. […] FIG. 15C: Human fibroblasts were directly converted to neurons and treated as in FIG. 15B. […] Beta III tubulin confirmed successful conversion of fibroblasts to iNeurons. FIG. 15D: Rat PC12 cells were treated as in FIG. 15A. Western blots show enhanced ubiquitylation of MFN2 and TOM70, and robust pSer65-Ub induction similar to PC, but not NC cells. FIG. 15E: In vitro E2 discharge assay. Recombinant Parkin was pre-incubated with compound 4 or DMSO as control and was mixed to Ub-loaded UbcH7. […] Control reactions were performed without PINK1 or Parkin. FIG. 15F: In vitro assay with isolated mitochondria from untreated or CCCP-treated HeLa cells lacking Parkin. Mitochondrial preparations were mixed with recombinant Parkin, E1, UbcH7, ATP and either compound 4 or DMSO as a control and incubated for the indicated times. […] Control samples were incubated in reaction mix without Parkin. FIG. 15G: Protein melting was performed with 50 ng purified Parkin mixed with SYPRO orange and DMSO as control or 500 nM compound 4. […] FIG. 15H: Statistical analysis of three independent experiments as performed in FIG. 15G. Shown in the average value+/−SD (unpaired, two-sided t-test; *** p<0.0005).
FIG. 16A: Quantification of pSer65-Ub signal using sandwich ELISA from six independent experiments performed in human fibroblast treated as described in FIG. 15A. Shown in the average−/+SD. One-way ANOVA with Tukey's posthoc test (*** p<0.0005). FIG. 16B: Human primary fibroblasts were treated with different concentrations of all five compounds (1, 2, 3, 4, and 31) for 2 h. […] Different CCCP concentrations were used as positive control. FIG. 16C: Rat PC12 cells were pretreated with 5 μM of the compounds for 2 h and then treated with low dose of CCCP (3.5 μM). Control cells were treated with DMSO and either 10 μM CCCP (PC) or 3.5 μM (NC). Some cells received no CCCP (−). […] The PINK1/Parkin product pSer65-Ub was induced by all five compounds upon low dose treatment and in positive controls. FIG. 16D: PC12 cells were differentiated by treatment with NGF (NGF+). Some cells were left undifferentiated (NGF−). Cells were treated with 5 μM of compounds or DMSO as indicated. 2 h later, low dose CCCP (3.5 μM) was added to cells treated with test compounds. DMSO controls were either treated with 3.5 μM CCCP (NC) or 10 μM CCCP (PC). Some cells were not treated with CCCP (−). Western blots probed with antibodies against MFN1 show degradation in cells treated with compounds and in the positive control. Some degradation can also be observed in the negative control. […] Beta III tubulin was used to confirm successful differentiation. Vinculin was used as loading control.
Primary fibroblasts (Cell Applications) were cultured in fibroblast growth medium (FGM): DMEM containing 10% FBS, 1% penicillin-streptomycin and 1% non-essential amino acids. Direct conversion to neurons was performed utilizing short hairpin RNA targeting polypyrimidine-tract-binding protein (shPTB), which affects proneuronal micro-RNA circuits (Xue et al., Cell (2013) 152:82-96. Cells were seeded with 40,000 cells/mL and allowed to adhere overnight. 48 h after transduction with pLKO. 1_shPTB lentivirus, positive cells were selected with 2 μg/mL puromycin in fibroblast growth medium. On day 6 media was changed to FGM containing 10 ng/mL fibroblast growth factor (FGF, Genscript). On day 8, media was changed to differentiation media (DMEM:F12 (Invitrogen), 25 μg/mL insulin, 50 μg/mL transferrin, 0.1 μM putrescine 0.03 μM Na-selenite (all Sigma-Aldrich), and 15 ng/mL FGF) containing 5% FBS. On days 10 and 12 media was replaced with differentiation media containing reduced serum (2% FBS). […]

[4] = 50 μM (row printed 100; conc. column shifted)
[5] = 100 μM (row printed 200; conc. column shifted)
[6] = 200 μM (row printed 0; conc. column shifted)
[7] = read-out: Inhibition, % (individual replicates)

CYP 2C9, sequence (P11712 whole entry): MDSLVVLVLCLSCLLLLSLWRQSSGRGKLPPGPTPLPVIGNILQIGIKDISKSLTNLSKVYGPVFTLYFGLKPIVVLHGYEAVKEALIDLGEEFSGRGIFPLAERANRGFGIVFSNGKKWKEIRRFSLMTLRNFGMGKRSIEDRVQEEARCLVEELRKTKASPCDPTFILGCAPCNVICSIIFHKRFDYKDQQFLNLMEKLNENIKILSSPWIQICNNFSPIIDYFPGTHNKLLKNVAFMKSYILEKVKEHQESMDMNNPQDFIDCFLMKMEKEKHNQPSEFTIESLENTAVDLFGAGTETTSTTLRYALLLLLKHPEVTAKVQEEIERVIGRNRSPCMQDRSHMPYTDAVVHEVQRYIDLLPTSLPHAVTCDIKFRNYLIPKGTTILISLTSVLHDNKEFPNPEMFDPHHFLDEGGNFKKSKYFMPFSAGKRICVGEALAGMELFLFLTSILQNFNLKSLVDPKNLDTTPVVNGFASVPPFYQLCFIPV
Parkin, sequence (O60260 whole entry): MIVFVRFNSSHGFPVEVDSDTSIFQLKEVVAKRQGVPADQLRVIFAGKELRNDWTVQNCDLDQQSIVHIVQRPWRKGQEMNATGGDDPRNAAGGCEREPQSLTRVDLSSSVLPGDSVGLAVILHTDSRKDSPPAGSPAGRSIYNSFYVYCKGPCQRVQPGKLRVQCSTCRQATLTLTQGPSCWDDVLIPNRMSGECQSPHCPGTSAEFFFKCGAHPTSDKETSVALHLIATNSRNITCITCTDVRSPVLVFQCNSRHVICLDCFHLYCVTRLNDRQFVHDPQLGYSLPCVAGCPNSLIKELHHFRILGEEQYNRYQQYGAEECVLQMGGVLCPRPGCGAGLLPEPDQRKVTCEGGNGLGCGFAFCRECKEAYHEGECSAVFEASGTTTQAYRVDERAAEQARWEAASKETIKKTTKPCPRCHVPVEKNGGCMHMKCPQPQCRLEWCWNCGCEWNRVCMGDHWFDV

Row | SMILES | Fold increase (over baseline) [1, 4] | Mean ± SD [1, 4] | Fold increase (over baseline) [1, 5] | Mean ± SD [1, 5] | Fold increase (over baseline) [1, 6] | Mean ± SD [1, 6] | Inhibition, % (individual replicates) [2] | inhibition at 10 µM ([2]; read-out: Inhibition, % Mean) | MFN1/2 degradation and pSer65-Ub levels [3] | MFN1 ubiquitylation or pSer65-Ub signals, compound treatment alone [3] | inhibition at 10 µM [2, 7] | mutagenic activity ([1]; 200 μM) | mitofusin ubiquitylation/degradation and pSer65-Ub signal ([3]; 5 μM for 2 h before different concentrations of CCCP)
1 | O=C(Cn1cnc2c1CCCC2)Nc1ccc(-c2ccccc2)cc1 [Compound 1] | 0 | 0 ± 0 revertant colonies per plate | 0 | 0 ± 0 revertant colonies per plate | 0 | 0 ± 0 revertant colonies per plate | 40.6% and 11.1% and 15.7% and 28.5% | 24% | enhanced degradation of the substrates MFN1/2 and increase of pSer65-Ub levels; also recorded: strongest effects | did not induce MFN1 ubiquitylation or pSer65-Ub signals | – | – | –
2 | CC(C)c1nccn1CC(=O)Nc1ccc(-c2ccccc2)cc1 [Compound 2] | 0.63 | 2.5 ± 2.12 revertant colonies per plate | 0.38 | 1.5 ± 0.7 revertant colonies per plate | 0.5 | 2 ± 2.82 revertant colonies per plate | 30.3% and 25.4% and 21.4% | 28.4% | enhanced degradation of the substrates MFN1/2 and increase of pSer65-Ub levels | did not induce MFN1 ubiquitylation or pSer65-Ub signals | 36.6% | – | –
3 | CC(C)(C)Sc1ccc(NC(=O)Cn2ccnc2)cc1 [Compound 3] | 1 | 4 ± 0 revertant colonies per plate | 1.75 | 7 ± 0 revertant colonies per plate | >75 | >300 revertant colonies per plate | 98.8% and 98.0% and 97.4% | 97.6% | enhanced degradation of the substrates MFN1/2 and increase of pSer65-Ub levels | did not induce MFN1 ubiquitylation or pSer65-Ub signals | 96.2% | mutagenic activity | –
4 | O=C(Cn1ccnc1-c1ccccn1)Nc1ccc(-c2ccccc2)cc1 [Compound 4] | 0.75 | 3 ± 1.41 revertant colonies per plate | 0.38 | 1.5 ± 0.7 revertant colonies per plate | 1.38 | 5.5 ± 2.12 revertant colonies per plate | 27.3% and 11.9% and 4.6% and −11.1% | 8.2% | enhanced degradation of the substrates MFN1/2 and increase of pSer65-Ub levels; also recorded: strongest effects | did not induce MFN1 ubiquitylation or pSer65-Ub signals | – | – | increased ubiquitylation/degradation of mitofusins and amplification of the pSer65-Ub signal
5 | Cc1nc2c(c(N3CCCN(Cc4ccccc4)CC3)n1)CCCC2 [Compound 31] | 1.13 | 4.5 ± 3.53 revertant colonies per plate | 0.38 | 1.5 ± 0.7 revertant colonies per plate | 0 | 0 ± 0 revertant colonies per plate | 50.4% and −18.3% and 11.9% and 13.7% | 14.5% | enhanced degradation of the substrates MFN1/2 and increase of pSer65-Ub levels | did not induce MFN1 ubiquitylation or pSer65-Ub signals | – | – | –
